Experimental data taken from US20150087673A1, “METHODS FOR USING AND BIOMARKERS FOR AMPK-ACTIVATING COMPOUNDS” (RIGEL PHARMACEUTICALS, INC., priority 2013, published 2015).

Test system: AMPK
Assay: AMPK activation assay (enzyme-linked immunosorbent assay)
Type: cell-based
Outline: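 Compounds were tested for their capacity to activate the kinase using standard, commercially available kit reagents and procedures.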

| EC50 [µM] | Structure (SMILES) |
| --- | --- |
| 1 to 5 | N#Cc1ccc(Oc2ccc(NC(=O)c3ccc(C(=O)N4CCC(S(=O)(=O)c5ccc(F)cc5)CC4)nc3)cn2)cc1 [Compound 472, N-(6-(4-cyanophenoxy)pyridin-3-yl)-6-(4-(4-fluorophenylsulfonyl)piperidine-1-carbonyl)nicotinamide] |
| 1 to 5 | CC(=O)c1ccc(Oc2ccc(NC(=O)c3ccc(C(=O)N4CCC(S(=O)(=O)c5ccc(F)cc5)CC4)nc3)cn2)cc1 [Compound 473, N-(6-(4-acetylphenoxy)pyridin-3-yl)-6-(4-(4-fluorophenylsulfonyl)piperidine-1-carbonyl)nicotinamide] |
| < 0.5 | N#Cc1ccc(Oc2ccc(NC(=O)c3ccc(C(=O)N4CCN(Cc5ccc(F)cc5)CC4)nc3)cn2)cc1 [Compound 476, N-(6-(4-cyanophenoxy)pyridin-3-yl)-6-(4-(4-fluorobenzyl)piperazine-1-carbonyl)nicotinamide] |
| < 0.5 | Cc1nc(Oc2ccc(C#N)cc2)ccc1NC(=O)c1ccc(C(=O)N2CCC(C(=O)c3ccc(F)cc3F)CC2)nc1 [Compound 479, N-(6-(4-cyanophenoxy)-2-methylpyridin-3-yl)-6-(4-(2,4-difluorobenzoyl)piperidine-1-carbonyl)nicotinamide] |
| < 0.5 | CN(C)C(=O)c1ccc(Oc2ccc(NC(=O)c3ccc(C(=O)N4CCC(C(=O)c5ccc(F)cc5F)CC4)nc3)cn2)cc1 [Compound 481, 6-(4-(2,4-difluorobenzoyl)piperidine-1-carbonyl)-N-(6-(4-(dimethylcarbamoyl)phenoxy)pyridin-3-yl)nicotinamide] |
| < 0.5 | COc1ccc(C(=O)C2CCN(C(=O)c3ccc(C(=O)N(C)C4CCN(Cc5ccc(C#N)cc5)CC4)cn3)CC2)cc1 [Compound 482, N-(1-(4-cyanobenzyl)piperidin-4-yl)-6-(4-(4-methoxybenzoyl)piperidine-1-carbonyl)-N-methylnicotinamide] |
| < 0.5 | COc1ccc(C(=O)C2CCN(C(=O)c3ccc(C(=O)N(C)C4CCN(Cc5ccc(OC(F)(F)F)cc5)CC4)cn3)CC2)cc1 [Compound 483, 6-(4-(4-methoxybenzoyl)piperidine-1-carbonyl)-N-methyl-N-(1-(4-(trifluoromethoxy)benzyl)piperidin-4-yl)nicotinamide] |
| 1 to 5 | CC(=O)c1ccc(Oc2ccc(NC(=O)c3ccc(C(=O)N4CCN(c5ccc(S(C)(=O)=O)cc5)CC4)nc3)cn2)cc1 [Compound 487, N-(6-(4-acetylphenoxy)pyridin-3-yl)-6-(4-(4-(methylsulfonyl)phenyl)piperazine-1-carbonyl)nicotinamide] |
| < 0.5 | O=C(NC1CCN(Cc2ccc(OC(F)(F)F)cc2)CC1)c1ccc(C(=O)N2CCC(Oc3ccc(S(F)(F)(F)(F)F)cc3)CC2)nc1 [Compound 494, 6-(4-(4-(pentafluorosulfanyl)phenoxy)piperidine-1-carbonyl)-N-(1-(4-(trifluoromethoxy)benzyl)piperidin-4-yl)nicotinamide] |
| < 0.5 | COc1ccc(CN2CCC(NC(=O)c3ccc(C(=O)N4CCC(Oc5ccc(S(F)(F)(F)(F)F)cc5)CC4)nc3)CC2)cc1 [Compound 495, N-(1-(4-methoxybenzyl)piperidin-4-yl)-6-(4-(4-(pentafluorosulfanyl)phenoxy)piperidine-1-carbonyl)nicotinamide] |
| < 0.5 | COc1ccc(C(=O)C2CCN(C(=O)c3ccc(C(=O)NC4CCN(Cc5ccc(C#N)cc5)CC4(F)F)cn3)CC2)cc1 (stereo not shown) [Compound 498, N-(1-(4-cyanobenzyl)-3,3-difluoropiperidin-4-yl)-6-(4-(4-methoxybenzoyl)piperidine-1-carbonyl)nicotinamide] |

Further lines, the molecule ahead of its results:

| Structure (SMILES) | EC50 [µM] |
| --- | --- |
| N#Cc1ccc(CN2CCC(NC(=O)c3ccc(C(=O)N4CCC(S(=O)(=O)c5ccc(F)cc5)CC4)nc3)CC2)cc1 [Compound 471, N-(1-(4-cyanobenzyl)piperidin-4-yl)-6-(4-(4-fluorophenylsulfonyl)piperidine-1-carbonyl)nicotinamide] | 1 to 5 |
| COc1ccc(CN2CCC(NC(=O)c3ccc(C(=O)N4CCC(S(=O)(=O)c5ccc(F)cc5)CC4)nc3)CC2)cc1 [Compound 474, 6-(4-(4-fluorophenylsulfonyl)piperidine-1-carbonyl)-N-(1-(4-methoxybenzyl)piperidin-4-yl)nicotinamide] | 1 to 5 |
| COc1cccc(CN2CCC(NC(=O)c3ccc(C(=O)N4CCC(S(=O)(=O)c5ccc(F)cc5)CC4)nc3)CC2)c1 [Compound 475, 6-(4-(4-fluorophenylsulfonyl)piperidine-1-carbonyl)-N-(1-(3-methoxybenzyl)piperidin-4-yl)nicotinamide] | 1 to 5 |
| CC(=O)c1ccc(Oc2ccc(NC(=O)c3ccc(C(=O)N4CCN(Cc5ccc(F)cc5)CC4)nc3)cn2)cc1 [Compound 477, N-(6-(4-acetylphenoxy)pyridin-3-yl)-6-(4-(4-fluorobenzyl)piperazine-1-carbonyl)nicotinamide] | < 0.5 |
| COc1ccc(C(=O)C2CCN(C(=O)c3ccc(C(=O)Nc4ccc(Oc5ccc(C#N)cc5)nc4C)cn3)CC2)cc1 [Compound 478, N-(6-(4-cyanophenoxy)-2-methylpyridin-3-yl)-6-(4-(4-methoxybenzoyl)piperidine-1-carbonyl)nicotinamide] | < 0.5 |
| COc1ccc(C(=O)C2CCN(C(=O)c3ccc(C(=O)Nc4ccc(Oc5ccc(C(=O)N(C)C)cc5)nc4)cn3)CC2)cc1 [Compound 480, N-(6-(4-(dimethylcarbamoyl)phenoxy)pyridin-3-yl)-6-(4-(4-methoxybenzoyl)piperidine-1-carbonyl)nicotinamide] | < 0.5 |
| COc1ccc(CN2CCC(N(C)C(=O)c3ccc(C(=O)N4CCC(C(=O)c5ccc(OC)cc5)CC4)nc3)CC2)cc1 [Compound 484, 6-(4-(4-methoxybenzoyl)piperidine-1-carbonyl)-N-(1-(4-methoxybenzyl)piperidin-4-yl)-N-methylnicotinamide] | < 0.5 |
| CC(=O)c1ccc(Oc2ccc(NC(=O)c3ccc(C(=O)N4CCC(Oc5ccc(S(C)(=O)=O)cc5)CC4)nc3)cn2)cc1 [Compound 485, N-(6-(4-acetylphenoxy)pyridin-3-yl)-6-(4-(4-(methylsulfonyl)phenoxy)piperidine-1-carbonyl)nicotinamide] | < 0.5 |
| CC(=O)c1ccc(Oc2ccc(NC(=O)c3ccc(C(=O)N4CCC(Oc5ccc(S(=O)(=O)C6CC6)cc5)CC4)nc3)cn2)cc1 [Compound 486, N-(6-(4-acetylphenoxy)pyridin-3-yl)-6-(4-(4-(cyclopropylsulfonyl)phenoxy)piperidine-1-carbonyl)nicotinamide] | < 0.5 |
| CC(=O)c1ccc(Oc2ccc(NC(=O)c3ccc(C(=O)N4CCC(Oc5ccc(C(=O)N(C)C)cc5)CC4)nc3)cn2)cc1 [Compound 488, N-(6-(4-acetylphenoxy)pyridin-3-yl)-6-(4-(4-(dimethylcarbamoyl)phenoxy)piperidine-1-carbonyl)nicotinamide] | < 0.5 |
| CC(=O)c1ccc(Oc2ccc(NC(=O)c3ccc(C(=O)N4CCN(c5ccc(S(=O)(=O)C(C)C)cc5)CC4)nc3)cn2)cc1 [Compound 489, N-(6-(4-acetylphenoxy)pyridin-3-yl)-6-(4-(4-(isopropylsulfonyl)phenyl)piperazine-1-carbonyl)nicotinamide] | < 0.5 |
| COc1ccc(C(=O)C2CCN(C(=O)c3ccc(C(=O)NC4CCN(Cc5ccc(C(=O)N(C)C)cc5)CC4)cn3)CC2)cc1 [Compound 490, N-(1-(4-(dimethylcarbamoyl)benzyl)piperidin-4-yl)-6-(4-(4-methoxybenzoyl)piperidine-1-carbonyl)nicotinamide] | 1 to 5 |
| N#Cc1ccc(CN2CCC(NC(=O)c3ccc(N4CCN(Cc5ccc(F)cc5)CC4)nn3)CC2)cc1 [Compound 491, N-(1-(4-cyanobenzyl)piperidin-4-yl)-6-(4-(4-fluorobenzyl)piperazin-1-yl)pyridazine-3-carboxamide] | 1 to 5 |
| N#Cc1ccc(CN2CCC(NC(=O)c3ccc(C(=O)N4CCC(Oc5ccc(S(F)(F)(F)(F)F)cc5)CC4)cn3)CC2)cc1 [Compound 492, N-(1-(4-cyanobenzyl)piperidin-4-yl)-5-(4-(4-(pentafluorosulfanyl)phenoxy)piperidine-1-carbonyl)picolinamide] | < 0.5 |
| N#Cc1ccc(CN2CCC(NC(=O)c3ccc(C(=O)N4CCC(Oc5ccc(S(F)(F)(F)(F)F)cc5)CC4)nc3)CC2)cc1 [Compound 493, N-(1-(4-cyanobenzyl)piperidin-4-yl)-6-(4-(4-(pentafluorosulfanyl)phenoxy)piperidine-1-carbonyl)nicotinamide] | < 0.5 |
| O=C(Nc1ccc(Oc2ccc(F)cc2)nc1)c1ccc(C(=O)N2CCC(Oc3ccc(S(F)(F)(F)(F)F)cc3)CC2)nc1 [Compound 496, N-(6-(4-fluorophenoxy)pyridin-3-yl)-6-(4-(4-(pentafluorosulfanyl)phenoxy)piperidine-1-carbonyl)nicotinamide] | < 0.5 |
| N#Cc1ccc(Oc2ccc(NC(=O)c3ccc(C(=O)N4CCC(Oc5ccc(S(F)(F)(F)(F)F)cc5)CC4)nc3)cn2)cc1 [Compound 497, N-(6-(4-cyanophenoxy)pyridin-3-yl)-6-(4-(4-(pentafluorosulfanyl)phenoxy)piperidine-1-carbonyl)nicotinamide] | < 0.5 |
